Biological target: Prostaglandin F2-alpha receptor (Bos taurus)
Assay: Inhibitory Binding constant (n=2) to Prostanoid FP receptor expressed in bovine corpus luteum

| Ki [µM] | SMILES |
| --- | --- |
| 1.9 | O=C(O)CCC/C=C\C[C@@H]1[C@@H](/C=C/[C@@H](O)COc2cccc(Cl)c2)[C@H](O)CC[C@@H]1O [7-{2-[4-(3-Chloro-phenoxy)-3-hydroxy-but-1-enyl]-3,6-dihydroxy-cyclohexyl}-hept-5-enoic acid] |
| 56 | O=C(O)CCC/C=C\C[C@@H]1[C@@H](/C=C/[C@H](O)COc2cccc(Cl)c2)[C@H](O)CC[C@@H]1O [7-{2-[4-(3-Chloro-phenoxy)-3-hydroxy-but-1-enyl]-3,6-dihydroxy-cyclohexyl}-hept-5-enoic acid] |

Reference: BindingDB's records for doi:10.1021/jm990587w (Alcon Laboratories, 2000)
